Test results taken from US20050014783A1, “Use of Rho-kinase inhibitors in the treatment of aneurysm and cardiac hypertrophy” (Schering Aktiengesellschaft, priority 2003, published 2005).
Marks after values point to notes of the source that are not given here.

Key:
[1] = test system: ApoE-KO mice infused with angiotensin II; assay: Angiotensin II-induced abdominal aortic aneurysm in apoE-KO mice; assay type: in vivo
From the text: Infusion of apoE-KO mice (Jackson Laboratories, Bar Harbor, Me.) with angiotensin II has been reported to lead to the formation of large abdominal aortic aneurysms (Daugherty et al. (2000) J. Clin. Invest. 105:1605-1612). This system can be used as a model system in which to study the effects of the Rho-kinase inhibitors of the present invention on these conditions, using the methods described in Wang et al. (2001) American J. Path. 159:1455-1464. (See Example 1).
(§1) For some parameters measured, comparative data was also collected for C57 Black mice, the mouse strain from which the ApoE-KO mouse is derived.

[2] = test system: ApoE-KO mice infused with angiotensin II; assay: Angiotensin II-induced cardiac hypertrophy in apoE-KO mice; assay type: in vivo
[3] = test system: supra-renal aortic wall in apoE-KO mice; assay: Apoptosis in aortic tissue (TUNEL, cell death detection ELISA, H & E staining); assay type: in vivo; conditions: for apoptosis: TUNEL staining, supra-renal aorta, FIG. 2
Procedure: FIG. 3. To further quantify apoptosis in the aortic tissue, cell death detection ELISA assay was performed.

[4] = test system: ApoE-KO mice infused with angiotensin II; assay: Blood pressure, heart rate, serum cholesterol, aortic arch lesion area and aortic stiffness in Ang II-infused apoE-KO mice; assay type: in vivo
From the text: as §1

Rho-kinase = conditions: cited from earlier work

SMILES: O=S(=O)(c1cccc2cnccc12)N1CCCNCC1 [Fasudil, Hexahydro-1-(5-isoquinolylsulfonyl)-1H-1,4-diazepine]
- Diameter (mm) ([1]; Ang II for 30 days, fasudil in drinking water, postmortem direct measurement): 1.5 ± 0.1 mm
- Incidence (%) ([1]; abdominal aortic aneurysm, Ang II 1.44 mg/kg per day for 30 days, fasudil 1 mg/ml in drinking water): 41# %
- incidence of abdominal aortic aneurysm formation ([1]; oral, >100 mg/kg daily in drinking water, n=20, p<0.05 vs. controls): 35%
- decrease in the size of aneurysms ([1]; versus Ang II treated ApoE-KO mice, FIG. 1, fasudil 0.5 mg/ml and 1 mg/ml in drinking water): 29%
- Heart/body Wt ([2]; Ang II for 30 days, fasudil in drinking water): 6.1 ± 0.1
- Myocyte (mm^2) ([2]; cardiomyocyte size, Ang II for 30 days, fasudil in drinking water): 262 ± 16# mm^2
- gene expression of ANP and collagen III ([2]; heart of apoE-KO mice): normalized
- angiotensin-II induced cardiac hypertrophy ([2]; measured by heart weight or cardiomyocyte size): significantly reduced
- cardiac function ([2]; mouse, in vivo): improved
- perivascular fibrosis ([2]; mouse, in vivo): reduced
- decrease in the degree of cardiac hypertrophy ([2]; versus Ang II treated ApoE-KO mice, FIG. 4, fasudil 0.5 mg/ml and 1 mg/ml): 14%
- aortic wall changes (adventitial fibrosis, inflammation, destruction of smooth muscle cells and elastin) ([3]; H & E staining, high dose fasudil, animals with aneurysm): ameliorated, but not fully eliminated
- apoptosis [3]: reducing apoptosis
- apoptosis ([3]; listed as fasudil): decreased apoptosis
- cytosolic DNA fragmentation increased by Ang II ([3]; cell death detection ELISA, aortic tissue, P<0.01, FIG. 3): abolished
- Lesion (%) ([4]; aortic arch atherosclerotic lesion area, Ang II for 30 days, fasudil in drinking water): 25 ± 3%
- effect on aortic arch atherosclerotic lesion area ([4]; mouse, in vivo): no effect
- effect on aortic stiffness ([4]; mouse, in vivo): no effect
- effect on serum cholesterol ([4]; mouse, in vivo): no effect
- effect on heart rate ([4]; tail cuff instrumentation): no effect
- effect on systolic blood pressure (SBP) ([4]; tail cuff instrumentation): no effect

SMILES: O=S(=O)(c1cccc2c(O)nccc12)N1CCCNCC1 [hydroxyfasudil]
- specificity of the inhibitory effect on Rho-kinase (Rho-kinase): more specific inhibitory effect on Rho-kinase
